{"source": "patent US10059694B2", "about": "“2-aminopyrimidine compound and pharmaceutical composition and use thereof” (Shanghai Institute of Materia Medica, Chinese Academy of …, priority 2014, dated 2018)", "key": {"EGFR^wt": {"molecular_target": "T1, EGFR^wt (Homo sapiens, UniProt P00533)", "T1 construct": "purchased Millipore", "T1 sequence (P00533 25-1210)": "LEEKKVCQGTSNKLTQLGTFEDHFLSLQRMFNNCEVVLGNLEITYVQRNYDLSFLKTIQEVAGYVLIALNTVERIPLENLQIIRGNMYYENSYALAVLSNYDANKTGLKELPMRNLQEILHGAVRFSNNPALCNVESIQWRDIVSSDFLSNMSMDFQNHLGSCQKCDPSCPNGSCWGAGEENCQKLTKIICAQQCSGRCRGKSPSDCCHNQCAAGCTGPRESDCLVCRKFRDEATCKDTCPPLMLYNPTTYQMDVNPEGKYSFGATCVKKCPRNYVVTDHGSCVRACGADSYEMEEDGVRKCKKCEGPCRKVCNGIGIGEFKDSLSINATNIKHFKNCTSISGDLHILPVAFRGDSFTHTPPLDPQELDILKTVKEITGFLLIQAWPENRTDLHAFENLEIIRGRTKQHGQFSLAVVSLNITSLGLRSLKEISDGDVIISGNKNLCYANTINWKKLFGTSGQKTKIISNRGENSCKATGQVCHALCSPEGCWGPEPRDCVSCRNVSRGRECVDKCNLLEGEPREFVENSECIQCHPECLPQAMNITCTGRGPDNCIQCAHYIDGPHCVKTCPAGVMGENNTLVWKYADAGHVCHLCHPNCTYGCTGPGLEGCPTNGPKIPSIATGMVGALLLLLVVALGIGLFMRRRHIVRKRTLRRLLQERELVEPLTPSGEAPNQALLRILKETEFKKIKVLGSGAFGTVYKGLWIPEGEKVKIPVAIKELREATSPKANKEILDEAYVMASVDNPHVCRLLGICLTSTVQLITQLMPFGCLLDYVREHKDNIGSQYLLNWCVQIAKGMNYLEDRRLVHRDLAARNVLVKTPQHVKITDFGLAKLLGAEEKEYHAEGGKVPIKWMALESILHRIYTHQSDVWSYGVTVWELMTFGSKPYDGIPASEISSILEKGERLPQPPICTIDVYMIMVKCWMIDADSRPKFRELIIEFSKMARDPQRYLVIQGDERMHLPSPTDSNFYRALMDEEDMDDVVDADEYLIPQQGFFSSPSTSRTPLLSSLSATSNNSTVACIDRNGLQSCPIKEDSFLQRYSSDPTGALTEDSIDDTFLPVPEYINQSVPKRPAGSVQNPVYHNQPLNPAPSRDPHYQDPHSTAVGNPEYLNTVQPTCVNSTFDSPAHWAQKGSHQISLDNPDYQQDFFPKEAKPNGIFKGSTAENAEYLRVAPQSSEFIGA", "experiment": "kinase inhibitory activity test (ELISA), EGFR^WT", "format": "biochemical", "conditions": "ATP 5 μM, 1 hour at 37° C.", "how_it_was_run": "(§1)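 ELISA on poly(Glu,Tyr)4:1-coated plates; kinase reaction with 5 μM ATP (final) in 50 mM HEPES pH 7.4, 50 mM MgCl2, 5 mM MnCl2, 0.2 mM Na3VO4, 1 mM DTT, 1 h at 37° C. Phosphotyrosine detected via PY99/HRP and OPD at 490 nm; IC50 by four-parameter fit.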"}, "EGFR^T790M/L858R": {"molecular_target": "T2, EGFR^T790M/L858R (Homo sapiens, UniProt P00533, L858R/T790M)", "T2 construct": "purchased Millipore", "T2 sequence (P00533 25-1210 T790M/L858R)": "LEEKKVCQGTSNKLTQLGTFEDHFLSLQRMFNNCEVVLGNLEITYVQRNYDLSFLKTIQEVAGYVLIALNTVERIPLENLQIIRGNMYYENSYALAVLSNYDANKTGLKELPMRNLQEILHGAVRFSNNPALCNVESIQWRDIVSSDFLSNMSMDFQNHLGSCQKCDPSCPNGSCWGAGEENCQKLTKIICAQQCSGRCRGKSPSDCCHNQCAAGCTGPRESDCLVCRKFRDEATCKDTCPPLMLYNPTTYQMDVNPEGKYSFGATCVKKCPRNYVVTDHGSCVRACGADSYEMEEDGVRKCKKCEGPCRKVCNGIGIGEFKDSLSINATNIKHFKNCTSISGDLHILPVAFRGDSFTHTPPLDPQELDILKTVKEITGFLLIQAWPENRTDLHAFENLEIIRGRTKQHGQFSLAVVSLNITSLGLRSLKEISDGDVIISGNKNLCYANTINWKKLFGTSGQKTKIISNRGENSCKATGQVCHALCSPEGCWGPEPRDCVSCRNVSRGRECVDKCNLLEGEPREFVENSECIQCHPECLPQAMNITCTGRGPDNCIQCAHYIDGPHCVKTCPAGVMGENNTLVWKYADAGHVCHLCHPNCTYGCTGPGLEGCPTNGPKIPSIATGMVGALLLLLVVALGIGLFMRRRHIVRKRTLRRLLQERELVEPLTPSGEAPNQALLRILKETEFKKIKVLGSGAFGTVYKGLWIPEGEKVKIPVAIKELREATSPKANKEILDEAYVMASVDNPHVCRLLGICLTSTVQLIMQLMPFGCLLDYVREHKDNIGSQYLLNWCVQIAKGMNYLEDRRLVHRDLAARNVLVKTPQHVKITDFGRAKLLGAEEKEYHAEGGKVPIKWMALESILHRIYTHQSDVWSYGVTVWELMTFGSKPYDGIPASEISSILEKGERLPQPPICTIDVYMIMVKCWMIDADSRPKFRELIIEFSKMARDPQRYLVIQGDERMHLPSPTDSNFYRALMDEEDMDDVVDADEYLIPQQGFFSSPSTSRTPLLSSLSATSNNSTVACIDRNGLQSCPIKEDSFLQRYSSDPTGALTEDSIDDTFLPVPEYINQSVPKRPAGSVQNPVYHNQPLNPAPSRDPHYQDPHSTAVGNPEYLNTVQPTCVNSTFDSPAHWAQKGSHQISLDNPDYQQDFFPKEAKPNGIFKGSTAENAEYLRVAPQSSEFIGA", "experiment": "kinase inhibitory activity test (ELISA), EGFR^T790M/L858R", "format": "biochemical", "how_it_was_run": "as §1"}, "[1]": {"test_system": "human epidermal carcinoma A431 cell line", "experiment": "SRB proliferation assay, A431 cells", "format": "cell-based", "conditions": "A-431, SRB, 72 h, read-out: IC50 A431", "how_it_was_run": "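A431 cells in log phase are allowed to adhere for 24 h, then exposed to compound for 72 h in triplicate alongside DMSO controls. Cells are fixed with cold 10% TCA, stained with SRB, dye is solubilised in 10 mM Tris pH 10.5, and OD is read at 515 nm.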"}, "[2]": {"test_system": "human non-small cell lung cancer NCI-H1975 cell line", "experiment": "SRB proliferation assay, NCI-H1975 cells", "format": "cell-based", "conditions": "NCI-H1975, SRB, 72 h, read-out: IC50 NCI-H1975", "how_it_was_run": "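NCI-H1975 cells in log phase were allowed to adhere for 24 h, then treated with compound in triplicate for 72 h. Cells were TCA-fixed and SRB-stained, with OD read at 515 nm; IC50 derived from growth inhibition versus DMSO control.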"}, "[3]": {"test_system": "phosphorylation of EGFR^wt in A431 cells", "experiment": "Western blot, EGFR phosphorylation in A431 cells", "format": "cell-based, human", "conditions": "FIG. 2", "procedure": "The tests were performed using conventional Western Blot (immunoblotting test), as follows. A certain number of A431 cells and NCI-H1975 cells in the logarithmic growth phase were inoculated on 6-well plate and adherent cultured overnight in the incubator. Replaced with serum-free medium and starved for 24 h, a certain concentration of compound was added and reacted for 2 h. 50 ng/mL of EGF stimulating factor was added and reacted for 10 min. The cells were lysed with lysate and samples were collected, and then the samples were taken for SDS-PAGE electrophoresis. After electrophoresis, the protein was transferred to a nitrocellulose membrane by a semi-dry transfer system. The nitrocellulose membrane was placed in a blocking solution (5% skimmed milk diluted with TBS containing 0.1% Tween 20) for 2 h at room temperature, and then incubated overnight at 4° C. in a primary antibody solution (diluted with TBS containing 0.1% Tween 20 by 1:500). It was washed for three times with TBS containing 0.1% Tween 20 for 15 min each time. The membrane was placed in a secondary antibody solution (horseradish peroxidase labeled goat anti-rabbit IgG, diluted with TBS containing 0.1% Tween 20 by 1:2000) and reacted for 1 h at room temperature. After washed for three times as above, the membrane was dyed with ECL plus reagent and photoed using image Quant LAS 4000 camera."}}, "note": "pIC50: −log10 of the molar value."}
{"smiles": "C=CC(=O)Nc1cc(Nc2ncc(Cl)c(Nc3ccc4ccccc4c3)n2)c(OC)cc1N(C)CCN(C)C", "note": "[CCB120067, N-((5-((5-chloro-4-((naphthalen-2-yl)amino))pyrimidin-2-yl)amino)-2-((N-methyl-N-dimethylaminoethyl)amino)-4-methoxyphenyl)acrylamide]", "values": [{"measurement": "pIC50", "setting": "EGFR^wt", "result": 8.03}, {"measurement": "pIC50", "setting": "EGFR^T790M/L858R; ELISA, ATP 5 μM, 1 hour at 37° C.", "result": 9.40}, {"measurement": "kinase inhibitory activity (in words)", "setting": "EGFR^T790M/L858R; summary of Table 1", "result": "potent"}, {"measurement": "pIC50", "setting": "[1]", "result": 6.87}, {"measurement": "pIC50", "setting": "[2]", "result": "7.25 to 9.00"}, {"measurement": "inhibitory activity on phosphorylation of EGFR^wt", "setting": "[3]", "result": "weaker"}]}
